According to ChEMBL document CHEMBL1156254, “4-Pregnen-21-ol-3,20-dione-21-(4-bromobenzenesulfonate) (NSC 88915) and related novel steroid derivatives as tyrosyl-DNA phosphodiesterase (Tdp1) inhibitors” (J Med Chem, 2009):
Activity calls are given as the source filed them. The rule behind the calls is not given here.

What follows are compounds tested against Tyrosyl-DNA phosphodiesterase 1 (Homo sapiens) (UniProt Q9NUW8) (assay: Ratio of IC50 of test compound to IC50 of NSC88915 for human Tdp1 assessed as blockade of enzyme-mediated hydrolysis of phosphodiester linkage between tyrosine and 3^-end of N14Y DNA substrate by SDS-PAGE electrophoresis).
Chain of Tyrosyl-DNA phosphodiesterase 1 (Homo sapiens) (Q9NUW8 whole entry): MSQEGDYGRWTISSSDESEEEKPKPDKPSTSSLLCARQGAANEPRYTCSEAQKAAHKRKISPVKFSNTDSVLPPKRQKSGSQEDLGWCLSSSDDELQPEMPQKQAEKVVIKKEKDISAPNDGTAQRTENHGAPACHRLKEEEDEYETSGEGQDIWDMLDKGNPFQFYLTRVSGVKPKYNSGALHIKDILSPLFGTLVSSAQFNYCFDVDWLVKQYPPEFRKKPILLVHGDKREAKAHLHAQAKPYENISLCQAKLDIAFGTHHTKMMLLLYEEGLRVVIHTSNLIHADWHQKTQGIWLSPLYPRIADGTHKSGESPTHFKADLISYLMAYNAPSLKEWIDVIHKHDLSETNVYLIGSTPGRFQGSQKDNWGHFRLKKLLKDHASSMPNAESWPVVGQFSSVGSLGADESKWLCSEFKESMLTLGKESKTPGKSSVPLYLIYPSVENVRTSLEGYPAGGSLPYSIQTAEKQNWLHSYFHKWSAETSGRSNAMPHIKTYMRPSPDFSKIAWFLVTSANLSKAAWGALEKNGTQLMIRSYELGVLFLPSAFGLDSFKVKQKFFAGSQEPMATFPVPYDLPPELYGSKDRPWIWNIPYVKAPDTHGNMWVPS

Ratio IC50 | Compound
< 3 | C[C@]12CC[C@H]3[C@@H](CCC4=CC(=O)CC[C@@]43C)[C@@H]1CC[C@@H]2C(=O)COS(=O)(=O)c1ccc(F)cc1
< 3 | C[C@]12CC[C@H]3[C@@H](CCC4=CC(=O)CC[C@@]43C)[C@@H]1CC[C@@H]2C(=O)COS(=O)(=O)c1ccccc1
< 3 | C[C@]12CC[C@H]3[C@@H](CCC4=CC(=O)CC[C@@]43C)[C@@H]1CC[C@@H]2C(=O)COS(=O)(=O)c1ccc([N+](=O)[O-])cc1
< 3 | C[C@]12CC[C@H]3[C@@H](CCC4=CC(=O)CC[C@@]43C)[C@@H]1CC[C@@H]2C(=O)COS(=O)(=O)c1ccc(Cl)cc1
< 3 | Cc1ccc(S(=O)(=O)OCC(=O)[C@H]2CC[C@H]3[C@@H]4CCC5=CC(=O)CC[C@]5(C)[C@H]4CC[C@]23C)cc1

What follows are compounds tested against DNA repair nuclease/redox regulator APEX1 (Homo sapiens) (UniProt P27695) (assay: Inhibition of human APE1 up to 100 uM).
Chain of DNA repair nuclease/redox regulator APEX1 (Homo sapiens) (P27695 whole entry): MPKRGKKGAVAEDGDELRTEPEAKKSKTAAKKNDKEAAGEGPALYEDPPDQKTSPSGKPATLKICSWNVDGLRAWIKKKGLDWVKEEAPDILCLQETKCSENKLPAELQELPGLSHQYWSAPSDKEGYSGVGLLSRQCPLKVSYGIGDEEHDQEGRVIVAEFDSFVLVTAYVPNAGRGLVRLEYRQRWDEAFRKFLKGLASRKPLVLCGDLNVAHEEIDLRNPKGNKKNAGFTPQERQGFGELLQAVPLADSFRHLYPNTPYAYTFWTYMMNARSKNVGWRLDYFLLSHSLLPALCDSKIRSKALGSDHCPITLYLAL

inhibition | Compound
inactive | C[C@]12CC[C@H]3[C@@H](CCC4=CC(=O)CC[C@@]43C)[C@@H]1CC[C@@H]2C(=O)COS(=O)(=O)c1ccc(Br)cc1
